From paper PMC5078040 (Oncotarget, 2016)

What was measured:
PAK7 = target: T1, PAK7 (Homo sapiens, UniProt Q9P286); assay: KinomeScan; assay type: binding; conditions: 1uM
T1 construct: purchased DiscoveRx KINOMEscan

DMPK = target: T2, DMPK (Homo sapiens, UniProt Q09013); assay: KinomeScan; assay type: binding; conditions: 1uM
T2 construct: purchased DiscoveRx KINOMEscan

EGFR(L861Q) = target: T3, EGFR(L861Q) (Homo sapiens, UniProt P00533, L861Q); assay: KinomeScan; assay type: binding; conditions: 1uM
T3 construct: purchased DiscoveRx KINOMEscan

ADCK3 = target: T4, ADCK3 (Homo sapiens, UniProt Q8NI60); assay: KinomeScan; assay type: binding; conditions: 1uM
T4 construct: purchased DiscoveRx KINOMEscan

AMPK-alpha2 = target: T5, AMPK-alpha2 (Homo sapiens, UniProt P54646); assay: KinomeScan; assay type: binding; conditions: 1uM
T5 construct: purchased DiscoveRx KINOMEscan

BLK = target: T6, BLK (Homo sapiens, UniProt P51451); assay: KinomeScan; assay type: binding; conditions: 1uM
T6 construct: purchased DiscoveRx KINOMEscan
T6 sequence (P51451 whole entry): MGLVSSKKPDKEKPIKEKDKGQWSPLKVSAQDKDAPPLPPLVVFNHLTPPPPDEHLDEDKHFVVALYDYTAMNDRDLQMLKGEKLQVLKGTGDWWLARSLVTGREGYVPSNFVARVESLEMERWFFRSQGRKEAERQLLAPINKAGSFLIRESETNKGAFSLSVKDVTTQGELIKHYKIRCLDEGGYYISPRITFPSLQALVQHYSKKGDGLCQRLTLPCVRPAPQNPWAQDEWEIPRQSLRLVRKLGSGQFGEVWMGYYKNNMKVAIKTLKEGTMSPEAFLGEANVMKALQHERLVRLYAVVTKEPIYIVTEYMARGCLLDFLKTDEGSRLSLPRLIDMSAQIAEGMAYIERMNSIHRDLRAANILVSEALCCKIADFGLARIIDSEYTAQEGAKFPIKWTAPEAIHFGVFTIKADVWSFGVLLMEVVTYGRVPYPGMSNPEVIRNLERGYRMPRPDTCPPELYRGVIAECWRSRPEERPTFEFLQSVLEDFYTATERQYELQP

CASK = target: T7, CASK (Homo sapiens, UniProt O14936); assay: KinomeScan; assay type: binding; conditions: 1uM
T7 construct: purchased DiscoveRx KINOMEscan

EPHA3 = target: T8, EPHA3 (Homo sapiens, UniProt P29320); assay: KinomeScan; assay type: binding; conditions: 1uM
T8 construct: purchased DiscoveRx KINOMEscan

TAOK3 = target: T9, TAOK3 (Homo sapiens, UniProt Q9H2K8); assay: KinomeScan; assay type: binding; conditions: 1uM
T9 construct: purchased DiscoveRx KINOMEscan

HCK = target: T10, HCK (Homo sapiens, UniProt P08631); assay: KinomeScan; assay type: binding; conditions: 1uM
T10 construct: purchased DiscoveRx KINOMEscan

HASPIN = target: T11, HASPIN (Homo sapiens, UniProt Q8TF76); assay: KinomeScan; assay type: binding; conditions: 1uM
T11 construct: purchased DiscoveRx KINOMEscan

AKT1 = target: T12, AKT1 (Homo sapiens, UniProt P31749); assay: KinomeScan; assay type: binding; conditions: 1uM
T12 construct: purchased DiscoveRx KINOMEscan

TXK = target: T13, TXK (Homo sapiens, UniProt P42681); assay: KinomeScan; assay type: binding; conditions: 1uM
T13 construct: purchased DiscoveRx KINOMEscan

MST1R = target: T14, MST1R (Homo sapiens, UniProt Q04912); assay: KinomeScan; assay type: binding; conditions: 1uM
T14 construct: purchased DiscoveRx KINOMEscan

BRAF = target: T15, BRAF (Homo sapiens, UniProt P15056); assay: KinomeScan; assay type: binding; conditions: 1uM
T15 construct: purchased DiscoveRx KINOMEscan

EGFR(E746-A750del) = target: T16, EGFR(E746-A750del) (Homo sapiens, UniProt P00533, DEL746-750); assay: KinomeScan; assay type: binding; conditions: 1uM
T16 construct: purchased DiscoveRx KINOMEscan

PIK3CA(E542K) = target: T17, PIK3CA(E542K) (Homo sapiens, UniProt P42336, E542K); assay: KinomeScan; assay type: binding; conditions: 1uM
T17 construct: purchased DiscoveRx KINOMEscan

S6K phosphorylation = assay: Signaling pathway effect examination (western blotting); assay type: cell-based, human; set-up: dose or concentration left out as unconfirmed; conditions: MOLM13, HT, Namalwa, MEC-1, MEC-2 cells
Description: The cells were collected and lysed, and cell lysates were analyzed by western blotting.

TIE1 = target: T18, TIE1 (Homo sapiens, UniProt P35590); assay: KinomeScan; assay type: binding; conditions: 1uM
T18 construct: purchased DiscoveRx KINOMEscan
T18 sequence (P35590 22-1138): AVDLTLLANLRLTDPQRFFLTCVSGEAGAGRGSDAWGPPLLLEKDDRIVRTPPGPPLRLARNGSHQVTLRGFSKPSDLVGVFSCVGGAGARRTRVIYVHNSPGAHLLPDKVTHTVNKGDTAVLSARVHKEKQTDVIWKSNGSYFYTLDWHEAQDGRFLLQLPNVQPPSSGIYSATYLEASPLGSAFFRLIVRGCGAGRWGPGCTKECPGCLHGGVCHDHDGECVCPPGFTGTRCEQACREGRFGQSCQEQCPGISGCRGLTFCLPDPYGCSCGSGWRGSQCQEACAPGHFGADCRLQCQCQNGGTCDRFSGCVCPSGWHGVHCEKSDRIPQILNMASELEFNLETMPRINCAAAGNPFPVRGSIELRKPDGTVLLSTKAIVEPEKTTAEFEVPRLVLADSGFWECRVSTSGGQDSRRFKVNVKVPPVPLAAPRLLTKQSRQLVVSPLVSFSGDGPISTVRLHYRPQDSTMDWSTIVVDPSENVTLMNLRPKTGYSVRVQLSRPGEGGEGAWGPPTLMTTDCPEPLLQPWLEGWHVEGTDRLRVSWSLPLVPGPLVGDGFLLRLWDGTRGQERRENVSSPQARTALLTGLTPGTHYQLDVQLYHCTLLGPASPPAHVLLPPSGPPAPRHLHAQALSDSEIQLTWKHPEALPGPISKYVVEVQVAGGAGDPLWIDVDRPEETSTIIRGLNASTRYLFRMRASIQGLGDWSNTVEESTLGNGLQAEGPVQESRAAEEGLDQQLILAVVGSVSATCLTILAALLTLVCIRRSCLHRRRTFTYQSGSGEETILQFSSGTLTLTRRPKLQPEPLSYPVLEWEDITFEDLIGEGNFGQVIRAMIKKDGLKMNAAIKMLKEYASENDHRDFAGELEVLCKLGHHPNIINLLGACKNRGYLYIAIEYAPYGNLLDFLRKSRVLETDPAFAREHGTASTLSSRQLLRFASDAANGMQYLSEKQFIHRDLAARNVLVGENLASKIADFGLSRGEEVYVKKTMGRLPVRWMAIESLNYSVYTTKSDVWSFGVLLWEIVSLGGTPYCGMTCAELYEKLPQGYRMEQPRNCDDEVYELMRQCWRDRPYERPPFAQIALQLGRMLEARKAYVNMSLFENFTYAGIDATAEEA

YES = target: T19, YES (Homo sapiens, UniProt P07947); assay: KinomeScan; assay type: binding; conditions: 1uM
T19 construct: purchased DiscoveRx KINOMEscan

SRC = target: T20, SRC (Homo sapiens, UniProt P12931); assay: KinomeScan; assay type: binding; conditions: 1uM
T20 construct: purchased DiscoveRx KINOMEscan

TLK1 = target: T21, TLK1 (Homo sapiens, UniProt Q9UKI8); assay: KinomeScan; assay type: binding; conditions: 1uM
T21 construct: purchased DiscoveRx KINOMEscan

FLT3-autoinhibited = target: T22, FLT3-autoinhibited (Homo sapiens, UniProt P36888); assay: KinomeScan; assay type: binding; conditions: 1uM
T22 construct: purchased DiscoveRx KINOMEscan

MYO3A = target: T23, MYO3A (Homo sapiens, UniProt Q8NEV4); assay: KinomeScan; assay type: binding; conditions: 1uM
T23 construct: purchased DiscoveRx KINOMEscan

MET(M1250T) = target: T24, MET(M1250T) (Homo sapiens, UniProt P08581, M1250T); assay: KinomeScan; assay type: binding; conditions: 1uM
T24 construct: purchased DiscoveRx KINOMEscan

KIT(D816H) = target: T25, KIT(D816H) (Homo sapiens, UniProt P10721, D816H); assay: KinomeScan; assay type: binding; conditions: 1uM
T25 construct: purchased DiscoveRx KINOMEscan

PIK3CA(H1047L) = target: T26, PIK3CA(H1047L) (Homo sapiens, UniProt P42336, H1047L); assay: KinomeScan; assay type: binding; conditions: 1uM
T26 construct: purchased DiscoveRx KINOMEscan

CSNK2A2 = target: T27, CSNK2A2 (Homo sapiens, UniProt P19784); assay: KinomeScan; assay type: binding; conditions: 1uM
T27 construct: purchased DiscoveRx KINOMEscan
T27 sequence (P19784 whole entry): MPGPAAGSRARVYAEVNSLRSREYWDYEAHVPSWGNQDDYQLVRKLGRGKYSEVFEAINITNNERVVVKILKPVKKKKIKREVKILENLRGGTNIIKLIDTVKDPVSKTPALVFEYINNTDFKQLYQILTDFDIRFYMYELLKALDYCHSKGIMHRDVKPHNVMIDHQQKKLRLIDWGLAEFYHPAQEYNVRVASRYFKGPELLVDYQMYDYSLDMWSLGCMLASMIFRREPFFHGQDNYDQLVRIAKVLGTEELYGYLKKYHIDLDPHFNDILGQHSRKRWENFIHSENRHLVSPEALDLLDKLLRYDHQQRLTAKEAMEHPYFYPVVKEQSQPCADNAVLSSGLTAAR

MEK2 = target: T28, MEK2 (Homo sapiens, UniProt P36507); assay: KinomeScan; assay type: binding; conditions: 1uM
T28 construct: purchased DiscoveRx KINOMEscan
T28 sequence (P36507 whole entry): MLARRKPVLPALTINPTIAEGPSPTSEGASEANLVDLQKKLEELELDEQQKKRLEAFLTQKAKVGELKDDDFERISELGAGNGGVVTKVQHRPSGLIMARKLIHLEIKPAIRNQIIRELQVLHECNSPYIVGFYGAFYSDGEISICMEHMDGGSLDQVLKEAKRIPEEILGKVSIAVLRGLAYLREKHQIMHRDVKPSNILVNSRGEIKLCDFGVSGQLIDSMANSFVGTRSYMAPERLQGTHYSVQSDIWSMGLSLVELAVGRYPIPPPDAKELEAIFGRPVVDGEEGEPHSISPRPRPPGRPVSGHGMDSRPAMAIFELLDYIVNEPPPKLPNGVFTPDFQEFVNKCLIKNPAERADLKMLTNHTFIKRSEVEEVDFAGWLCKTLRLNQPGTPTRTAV

AXL = target: T29, AXL (Homo sapiens, UniProt P30530); assay: KinomeScan; assay type: binding; conditions: 1uM
T29 construct: purchased DiscoveRx KINOMEscan

KIT-autoinhibited = target: T30, KIT-autoinhibited (Homo sapiens, UniProt P10721); assay: KinomeScan; assay type: binding; conditions: 1uM
T30 construct: purchased DiscoveRx KINOMEscan

PI3Kδ = PI3Kδ (Homo sapiens, UniProt O00329); assay: ADP-glo biochemical assay; conditions: purified enzyme, read-out: biochemical IC50 PI3K Delta
Description: The reaction in each tube was started immediately by adding ATP and kept going for an hour under 37°C. After the tube cooled for 5 minutes at room temperature, 5 μL solvent reactions were carried out in a 384-well plate. Then 5 μL of ADP-Glo™ reagent was added into each well to stop the reaction and consume the remaining ADP within 40 minutes. At the end, 10 μL of kinase detection reagent was added into the well and incubated for 30 minutes to produce a luminescence signal. Luminescence signal was measured with an automated plate reader (Perkin-Elmer Envision) and each measurement was performed in triplicate.

PDGFRA = target: T31, PDGFRA (Homo sapiens, UniProt P16234); assay: KinomeScan; assay type: binding; conditions: 1uM
T31 construct: purchased DiscoveRx KINOMEscan

DDR1 = target: T32, DDR1 (Homo sapiens, UniProt Q08345); assay: KinomeScan; assay type: binding; conditions: 1uM
T32 construct: purchased DiscoveRx KINOMEscan

EPHA4 = target: T33, EPHA4 (Homo sapiens, UniProt P54764); assay: KinomeScan; assay type: binding; conditions: 1uM
T33 construct: purchased DiscoveRx KINOMEscan

PIM2 = target: T34, PIM2 (Homo sapiens, UniProt Q9P1W9); assay: KinomeScan; assay type: binding; conditions: 1uM
T34 construct: purchased DiscoveRx KINOMEscan

NDR2 = target: T35, NDR2 (Homo sapiens, UniProt Q9Y2H1); assay: KinomeScan; assay type: binding; conditions: 1uM
T35 construct: purchased DiscoveRx KINOMEscan

SLK = target: T36, SLK (Homo sapiens, UniProt Q9H2G2); assay: KinomeScan; assay type: binding; conditions: 1uM
T36 construct: purchased DiscoveRx KINOMEscan
T36 sequence (Q9H2G2 whole entry): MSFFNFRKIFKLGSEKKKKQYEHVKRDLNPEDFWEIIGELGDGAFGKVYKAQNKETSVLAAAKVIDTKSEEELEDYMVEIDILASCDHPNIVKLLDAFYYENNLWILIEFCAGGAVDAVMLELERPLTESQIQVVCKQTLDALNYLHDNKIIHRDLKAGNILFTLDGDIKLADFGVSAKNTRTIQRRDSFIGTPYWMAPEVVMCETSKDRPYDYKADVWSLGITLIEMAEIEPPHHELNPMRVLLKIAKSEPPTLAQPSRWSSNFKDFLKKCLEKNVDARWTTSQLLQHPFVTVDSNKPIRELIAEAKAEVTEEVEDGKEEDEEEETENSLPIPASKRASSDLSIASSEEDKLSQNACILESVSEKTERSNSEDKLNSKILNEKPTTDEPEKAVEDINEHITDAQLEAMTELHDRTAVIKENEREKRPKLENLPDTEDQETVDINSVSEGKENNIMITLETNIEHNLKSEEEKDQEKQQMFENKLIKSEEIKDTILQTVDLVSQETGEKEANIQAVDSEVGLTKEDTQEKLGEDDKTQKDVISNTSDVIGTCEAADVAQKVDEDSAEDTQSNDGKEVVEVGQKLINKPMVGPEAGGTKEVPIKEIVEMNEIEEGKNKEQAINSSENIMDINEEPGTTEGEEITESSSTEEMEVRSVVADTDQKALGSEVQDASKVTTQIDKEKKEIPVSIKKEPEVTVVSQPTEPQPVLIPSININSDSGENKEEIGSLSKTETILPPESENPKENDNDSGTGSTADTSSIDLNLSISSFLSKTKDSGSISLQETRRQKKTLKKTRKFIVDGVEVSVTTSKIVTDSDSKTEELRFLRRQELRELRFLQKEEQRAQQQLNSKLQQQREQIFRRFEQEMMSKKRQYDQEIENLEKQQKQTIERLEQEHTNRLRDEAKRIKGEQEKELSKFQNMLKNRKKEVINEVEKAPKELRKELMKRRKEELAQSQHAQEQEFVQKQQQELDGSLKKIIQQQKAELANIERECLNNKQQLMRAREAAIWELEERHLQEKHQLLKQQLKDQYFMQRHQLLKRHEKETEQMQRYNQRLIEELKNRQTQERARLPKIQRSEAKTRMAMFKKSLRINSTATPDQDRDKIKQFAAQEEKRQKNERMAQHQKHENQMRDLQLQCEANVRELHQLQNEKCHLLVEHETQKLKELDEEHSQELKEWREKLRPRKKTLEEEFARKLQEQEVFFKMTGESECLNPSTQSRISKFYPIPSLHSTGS

FLT3(ITD) = assay: KinomeScan; assay type: binding; conditions: 1uM
ULK2 = target: T37, ULK2 (Homo sapiens, UniProt Q8IYT8); assay: KinomeScan; assay type: binding; conditions: 1uM
T37 construct: purchased DiscoveRx KINOMEscan
T37 sequence (Q8IYT8 whole entry): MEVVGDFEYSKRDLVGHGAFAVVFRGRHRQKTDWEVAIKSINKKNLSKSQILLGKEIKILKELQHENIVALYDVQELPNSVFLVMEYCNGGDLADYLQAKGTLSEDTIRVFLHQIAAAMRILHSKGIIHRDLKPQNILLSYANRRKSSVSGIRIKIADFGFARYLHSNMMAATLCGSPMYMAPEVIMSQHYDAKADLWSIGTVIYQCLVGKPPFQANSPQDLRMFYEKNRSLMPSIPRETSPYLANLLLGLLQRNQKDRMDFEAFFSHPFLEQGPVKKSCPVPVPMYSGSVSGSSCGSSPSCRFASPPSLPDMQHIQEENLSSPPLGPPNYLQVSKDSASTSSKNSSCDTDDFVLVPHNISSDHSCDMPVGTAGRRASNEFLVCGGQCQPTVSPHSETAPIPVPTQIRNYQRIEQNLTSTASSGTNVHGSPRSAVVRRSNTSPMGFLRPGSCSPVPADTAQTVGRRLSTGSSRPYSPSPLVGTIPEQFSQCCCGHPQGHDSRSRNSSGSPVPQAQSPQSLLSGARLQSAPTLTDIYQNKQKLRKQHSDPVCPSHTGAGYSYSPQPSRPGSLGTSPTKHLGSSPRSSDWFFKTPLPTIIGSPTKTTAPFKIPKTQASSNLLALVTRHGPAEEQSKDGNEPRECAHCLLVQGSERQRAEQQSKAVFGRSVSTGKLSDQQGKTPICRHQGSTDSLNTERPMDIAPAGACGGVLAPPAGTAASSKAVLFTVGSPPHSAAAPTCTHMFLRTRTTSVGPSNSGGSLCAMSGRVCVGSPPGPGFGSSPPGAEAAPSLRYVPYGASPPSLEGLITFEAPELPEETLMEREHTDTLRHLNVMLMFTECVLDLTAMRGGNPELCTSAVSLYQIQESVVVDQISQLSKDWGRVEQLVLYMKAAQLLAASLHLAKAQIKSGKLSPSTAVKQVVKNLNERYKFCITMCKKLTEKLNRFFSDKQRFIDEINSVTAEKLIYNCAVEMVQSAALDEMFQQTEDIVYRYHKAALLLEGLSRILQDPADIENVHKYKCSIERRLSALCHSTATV

PRKCQ = target: T38, PRKCQ (Homo sapiens, UniProt Q04759); assay: KinomeScan; assay type: binding; conditions: 1uM
T38 construct: purchased DiscoveRx KINOMEscan

MAPKAPK5 = target: T39, MAPKAPK5 (Homo sapiens, UniProt Q8IW41); assay: KinomeScan; assay type: binding; conditions: 1uM
T39 construct: purchased DiscoveRx KINOMEscan

MYLK4 = target: T40, MYLK4 (Homo sapiens, UniProt Q86YV6); assay: KinomeScan; assay type: binding; conditions: 1uM
T40 construct: purchased DiscoveRx KINOMEscan
T40 sequence (Q86YV6 whole entry): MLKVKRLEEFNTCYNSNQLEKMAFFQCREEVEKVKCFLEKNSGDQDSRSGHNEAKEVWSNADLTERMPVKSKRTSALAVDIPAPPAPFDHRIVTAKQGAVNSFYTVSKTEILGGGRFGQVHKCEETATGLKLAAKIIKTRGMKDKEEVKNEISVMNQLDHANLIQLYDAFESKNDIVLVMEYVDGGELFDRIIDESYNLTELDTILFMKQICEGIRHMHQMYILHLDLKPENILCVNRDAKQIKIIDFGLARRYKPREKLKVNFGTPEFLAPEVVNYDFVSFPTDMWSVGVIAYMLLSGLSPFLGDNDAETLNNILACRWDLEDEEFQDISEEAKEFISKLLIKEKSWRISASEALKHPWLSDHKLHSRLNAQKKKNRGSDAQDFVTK

## Cc1nc(NC(=O)[C@@H](N)C(C)C)sc1-c1cnc(Cl)c(NS(=O)(=O)c2ccccc2)c1 [PI3KD-IN-015]
PAK7
  KinomeScan PAK7: 89
DMPK
  KinomeScan DMPK: 83
EGFR(L861Q)
  KinomeScan EGFR(L861Q): 95
ADCK3
  KinomeScan ADCK3: 100
AMPK-alpha2
  KinomeScan AMPK-alpha2: 100
BLK
  KinomeScan BLK: 97
CASK
  KinomeScan CASK: 95
EPHA3
  KinomeScan EPHA3: 86
TAOK3
  KinomeScan TAOK3: 93
HCK
  KinomeScan HCK: 100
HASPIN
  KinomeScan HASPIN: 94
AKT1
  KinomeScan AKT1: 91
TXK
  KinomeScan TXK: 100
MST1R
  KinomeScan MST1R: 86
BRAF
  KinomeScan BRAF: 93
EGFR(E746-A750del)
  KinomeScan EGFR(E746-A750del): 100
PIK3CA(E542K)
  KinomeScan PIK3CA(E542K): 5.4
S6K phosphorylation
  S6K phosphorylation: significantly decreased
TIE1
  KinomeScan TIE1: 94
YES
  KinomeScan YES: 100
SRC
  KinomeScan SRC: 91
TLK1
  KinomeScan TLK1: 79
FLT3-autoinhibited
  KinomeScan FLT3-autoinhibited: 100
MYO3A
  KinomeScan MYO3A: 94
MET(M1250T)
  KinomeScan MET(M1250T): 74
KIT(D816H)
  KinomeScan KIT(D816H): 92
PIK3CA(H1047L)
  KinomeScan PIK3CA(H1047L): 0
CSNK2A2
  KinomeScan CSNK2A2: 39
MEK2
  KinomeScan MEK2: 94
AXL
  KinomeScan AXL: 97
KIT-autoinhibited
  KinomeScan KIT-autoinhibited: 100
PI3Kδ
  IC50: 5 nM
PDGFRA
  KinomeScan PDGFRA: 94
DDR1
  KinomeScan DDR1: 100
EPHA4
  KinomeScan EPHA4: 100
PIM2
  KinomeScan PIM2: 72
NDR2
  KinomeScan NDR2: 100
SLK
  KinomeScan SLK: 100
FLT3(ITD)
  KinomeScan FLT3(ITD): 100
ULK2
  KinomeScan ULK2: 79
PRKCQ
  KinomeScan PRKCQ: 100
MAPKAPK5
  KinomeScan MAPKAPK5: 82
MYLK4
  KinomeScan MYLK4: 80
